Source: US11274283B2 (priority 2014, dated 2022)

Key:
[1] = tested on: Ralstonia solanacearum tyrosinase; format: biochemical; details: up to 400 mM
mushroom tyrosinase [2] = details: at 5 mM; scientific literature; cited from earlier work
mushroom tyrosinase [3] = test: Inhibition of mushroom tyrosinase; format: biochemical; details: cannot complete the reaction

O=C1O[C@H]([C@@H](O)CO)C([O-])=C1O.[Na+] [ascorbic acid sodium salt]
inhibition of Ralstonia solanacearum tyrosinase activity [1]: No inhibition

O=C1O[C@H]([C@@H](O)CO)C(O)=C1O [ascorbic acid]
inhibition of mushroom tyrosinase (mushroom tyrosinase [2]): inhibition

OCCc1ccc(O)cc1 [tyrosol, 4-(2-hydroxyethyl)phenol]
tyrosol concentration above which commercial mushroom tyrosinase is inhibited (mushroom tyrosinase [3]): above 10 g/l
